# Test system: 454973-116-R2-J3-PDC spheroids, viability, % test/control
# Assay: Anticancer human tumor 454973-116-R2-J3-PDC patient-derived pancreatic carcinoma cell line growth inhibition [GQUAD]
# Conditions: second compound 3.16 µM; first compound 0.0316 µM; hits give low values; spheroids with HUVEC and MSC
# Procedure, shortened: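 Tumor cells were grown as complex spheroids with HUVEC endothelial cells and mesenchymal stem cells as stroma. G-quadruplex stabilizers were combined with targeted agents over half-log dilutions from near the clinical Cmax, or from 10 microM.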
# 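Note: spheroids exposed to compounds for seven days; 100% = DMSO vehicle control viability.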
row,Structure (SMILES),"viability, T/C [%]"
1,Cc1cccc(N(C)C(=O)C2C(O)CCN2c2nc(C)cc(C(F)(F)F)c2C#N)c1 (stereo unspecified) + Cc1[nH]c2ccc(F)cc2c1-c1nc2c3cccnc3c3ncccc3c2[nH]1,86.8

# Same assay, conditions: second compound 3.16 µM; first compound 0.0999 µM; hits give low values; spheroids with HUVEC and MSC
row,Structure (SMILES),"viability, T/C [%]"
1,CCc1c2c(nc3ccc(O)cc13)-c1cc3c(c(=O)n1C2)COC(=O)[C@]3(O)CC + Cc1[nH]c2ccc(F)cc2c1-c1nc2c3cccnc3c3ncccc3c2[nH]1,8.28

# Same assay, conditions: second compound 3.16 µM; first compound 0.1 µM; hits give low values; spheroids with HUVEC and MSC
row,Structure (SMILES),"viability, T/C [%]"
1,C=CC(=O)N1CCN(c2nc(=O)n(-c3c(C)ccnc3C(C)C)c3nc(-c4c(O)cccc4F)c(F)cc23)C(C)C1 (stereo unspecified) + Cc1[nH]c2ccc(F)cc2c1-c1nc2c3cccnc3c3ncccc3c2[nH]1,95.3
2,COc1cc(C2c3cc4c(cc3C(OC3OC5COC(C)OC5C(O)C3O)C3COC(=O)C23)OCO4)cc(OC)c1O (stereo unspecified) + Cc1[nH]c2ccc(F)cc2c1-c1nc2c3cccnc3c3ncccc3c2[nH]1,94.7
3,COc1cccc2c1C(=O)c1c(O)c3c(c(O)c1C2=O)CC(O)(C(=O)CO)CC3OC1CC(N)C(O)C(C)O1 (stereo unspecified) + Cc1[nH]c2ccc(F)cc2c1-c1nc2c3cccnc3c3ncccc3c2[nH]1,59.6
4,Cc1cccc(N(C)C(=O)C2C(O)CCN2c2nc(C)cc(C(F)(F)F)c2C#N)c1 (stereo unspecified) + Cc1[nH]c2ccc(F)cc2c1-c1nc2c3cccnc3c3ncccc3c2[nH]1,88.7

# Same assay, conditions: second compound 3.16 µM; first compound 0.316 µM; hits give low values; spheroids with HUVEC and MSC
row,Structure (SMILES),"viability, T/C [%]"
1,C=CC(=O)N1CCN(c2nc(=O)n(-c3c(C)ccnc3C(C)C)c3nc(-c4c(O)cccc4F)c(F)cc23)C(C)C1 (stereo unspecified) + Cc1[nH]c2ccc(F)cc2c1-c1nc2c3cccnc3c3ncccc3c2[nH]1,96.4
2,CCc1c2c(nc3ccc(O)cc13)-c1cc3c(c(=O)n1C2)COC(=O)[C@]3(O)CC + Cc1[nH]c2ccc(F)cc2c1-c1nc2c3cccnc3c3ncccc3c2[nH]1,5.63
3,COc1cc(C2c3cc4c(cc3C(OC3OC5COC(C)OC5C(O)C3O)C3COC(=O)C23)OCO4)cc(OC)c1O (stereo unspecified) + Cc1[nH]c2ccc(F)cc2c1-c1nc2c3cccnc3c3ncccc3c2[nH]1,98.7
4,COc1cccc2c1C(=O)c1c(O)c3c(c(O)c1C2=O)CC(O)(C(=O)CO)CC3OC1CC(N)C(O)C(C)O1 (stereo unspecified) + Cc1[nH]c2ccc(F)cc2c1-c1nc2c3cccnc3c3ncccc3c2[nH]1,27.6
5,Cc1cccc(N(C)C(=O)C2C(O)CCN2c2nc(C)cc(C(F)(F)F)c2C#N)c1 (stereo unspecified) + Cc1[nH]c2ccc(F)cc2c1-c1nc2c3cccnc3c3ncccc3c2[nH]1,97.4

# Same assay, conditions: second compound 3.16 µM; first compound 1 µM; hits give low values; spheroids with HUVEC and MSC
row,Structure (SMILES),"viability, T/C [%]"
1,C=CC(=O)N1CCN(c2nc(=O)n(-c3c(C)ccnc3C(C)C)c3nc(-c4c(O)cccc4F)c(F)cc23)C(C)C1 (stereo unspecified) + Cc1[nH]c2ccc(F)cc2c1-c1nc2c3cccnc3c3ncccc3c2[nH]1,111
2,COc1cc(C2c3cc4c(cc3C(OC3OC5COC(C)OC5C(O)C3O)C3COC(=O)C23)OCO4)cc(OC)c1O (stereo unspecified) + Cc1[nH]c2ccc(F)cc2c1-c1nc2c3cccnc3c3ncccc3c2[nH]1,48.5
3,COc1cccc2c1C(=O)c1c(O)c3c(c(O)c1C2=O)CC(O)(C(=O)CO)CC3OC1CC(N)C(O)C(C)O1 (stereo unspecified) + Cc1[nH]c2ccc(F)cc2c1-c1nc2c3cccnc3c3ncccc3c2[nH]1,24.4
4,Cc1cccc(N(C)C(=O)C2C(O)CCN2c2nc(C)cc(C(F)(F)F)c2C#N)c1 (stereo unspecified) + Cc1[nH]c2ccc(F)cc2c1-c1nc2c3cccnc3c3ncccc3c2[nH]1,106

# Same assay, conditions: second compound 3.16 µM; first compound 3.16 µM; hits give low values; spheroids with HUVEC and MSC
row,Structure (SMILES),"viability, T/C [%]"
1,C=CC(=O)N1CCN(c2nc(=O)n(-c3c(C)ccnc3C(C)C)c3nc(-c4c(O)cccc4F)c(F)cc23)C(C)C1 (stereo unspecified) + Cc1[nH]c2ccc(F)cc2c1-c1nc2c3cccnc3c3ncccc3c2[nH]1,113
2,COc1cc(C2c3cc4c(cc3C(OC3OC5COC(C)OC5C(O)C3O)C3COC(=O)C23)OCO4)cc(OC)c1O (stereo unspecified) + Cc1[nH]c2ccc(F)cc2c1-c1nc2c3cccnc3c3ncccc3c2[nH]1,22.9
3,COc1cccc2c1C(=O)c1c(O)c3c(c(O)c1C2=O)CC(O)(C(=O)CO)CC3OC1CC(N)C(O)C(C)O1 (stereo unspecified) + Cc1[nH]c2ccc(F)cc2c1-c1nc2c3cccnc3c3ncccc3c2[nH]1,14.8
4,Cc1cccc(N(C)C(=O)C2C(O)CCN2c2nc(C)cc(C(F)(F)F)c2C#N)c1 (stereo unspecified) + Cc1[nH]c2ccc(F)cc2c1-c1nc2c3cccnc3c3ncccc3c2[nH]1,103

# Same assay, conditions: second compound 3.16 µM; first compound 10 µM; hits give low values; spheroids with HUVEC and MSC
row,Structure (SMILES),"viability, T/C [%]"
1,C=CC(=O)N1CCN(c2nc(=O)n(-c3c(C)ccnc3C(C)C)c3nc(-c4c(O)cccc4F)c(F)cc23)C(C)C1 (stereo unspecified) + Cc1[nH]c2ccc(F)cc2c1-c1nc2c3cccnc3c3ncccc3c2[nH]1,107
2,COc1cc(C2c3cc4c(cc3C(OC3OC5COC(C)OC5C(O)C3O)C3COC(=O)C23)OCO4)cc(OC)c1O (stereo unspecified) + Cc1[nH]c2ccc(F)cc2c1-c1nc2c3cccnc3c3ncccc3c2[nH]1,13.4
3,COc1cccc2c1C(=O)c1c(O)c3c(c(O)c1C2=O)CC(O)(C(=O)CO)CC3OC1CC(N)C(O)C(C)O1 (stereo unspecified) + Cc1[nH]c2ccc(F)cc2c1-c1nc2c3cccnc3c3ncccc3c2[nH]1,0.52
4,Cc1cccc(N(C)C(=O)C2C(O)CCN2c2nc(C)cc(C(F)(F)F)c2C#N)c1 (stereo unspecified) + Cc1[nH]c2ccc(F)cc2c1-c1nc2c3cccnc3c3ncccc3c2[nH]1,105

# Same assay, conditions: second compound 10 µM; first compound 0.000999 µM; hits give low values; spheroids with HUVEC and MSC
row,Structure (SMILES),"viability, T/C [%]"
1,CCc1c2c(nc3ccc(O)cc13)-c1cc3c(c(=O)n1C2)COC(=O)[C@]3(O)CC + Cc1[nH]c2ccc(F)cc2c1-c1nc2c3cccnc3c3ncccc3c2[nH]1,63.6

# Same assay, conditions: second compound 10 µM; first compound 0.00316 µM; hits give low values; spheroids with HUVEC and MSC
row,Structure (SMILES),"viability, T/C [%]"
1,CCc1c2c(nc3ccc(O)cc13)-c1cc3c(c(=O)n1C2)COC(=O)[C@]3(O)CC + Cc1[nH]c2ccc(F)cc2c1-c1nc2c3cccnc3c3ncccc3c2[nH]1,25.6

# Same assay, conditions: second compound 10 µM; first compound 0.00999 µM; hits give low values; spheroids with HUVEC and MSC
row,Structure (SMILES),"viability, T/C [%]"
1,CCc1c2c(nc3ccc(O)cc13)-c1cc3c(c(=O)n1C2)COC(=O)[C@]3(O)CC + Cc1[nH]c2ccc(F)cc2c1-c1nc2c3cccnc3c3ncccc3c2[nH]1,18.2
